Test results: a melting point compilation (Tetko et al.; mined from patent text by program, amines drawn as free bases though some values may be those of a salt)

Row | melting point | Structure (SMILES)
1 | 138 to 141 °C | Cc1cc(I)ccc1-c1cccc(C(N)=O)c1
2 | 242 to 246 °C | CN(C)CCN(Cc1ccccc1)C1=NC(=O)C(=Cc2cccc(-c3cc(F)c(O)c(C45CC6CC(CC(C6)C4)C5)c3)c2)S1
3 | 138 to 142 °C | C=CCSC1(C(F)(F)F)CN(CC)C(=O)Nc2ccc(Cl)cc21 (stereo not given)
4 | 105 to 106 °C | CCN(CC)c1cccc(OCCOS(N)(=O)=O)c1
5 | 258 °C | CCOC(=O)c1nc2scc(C(=O)O)c2c(=O)[nH]1
6 | 130 °C | CC(C)C(C(N)=S)N(C)C(=O)OCc1ccccc1 (stereo not given)
7 | 95 °C | CC(=O)OCn1cc(Cl)c(-c2cc(Cl)cc(Cl)c2)n1
8 | 140 °C | CC1=NN(C)c2nc(C)c(CCO)c(=O)n2C1
9 | 237 °C | Cc1cc(C(=O)Nc2cc(Oc3ccc4nc(NC(=O)C5CC5)cn4n3)ccc2F)n(C)n1
10 | 196 to 198 °C | NC(=O)C(OC(=O)Nc1cccc(Cl)c1)(C(N)=O)c1ccccc1
11 | 206 to 208 °C | N#Cc1nc(-c2nn(-c3c(Cl)cc(C(F)(F)F)cc3Cl)nc2Cl)[nH]c1C#N
12 | 98 to 105 °C | COC(=O)c1ccc(-c2nnc(CSCCCCOc3ccccc3)o2)cc1
13 | 122 to 124 °C | CN(C)C(=O)C(C)(C)n1cc(Br)c(-c2ccccc2)n1
14 | 194 to 196 °C | NC(=O)CC(CC(N)=O)c1cccc(Cl)c1Cl
15 | 187 to 189 °C | CC(=O)NC[C@H]1CN(c2ccc(C3C=CS(=O)(=O)CC3)cc2)C(=O)O1 (stereo not given in full)
16 | 138 to 139 °C | c1ccc(-c2ccc3nncn3n2)cc1
17 | 202 to 204 °C | c1cc(-n2ccnc2)cc(-n2cnc3cc(-c4ccoc4)cnc32)c1
18 | 143 to 145 °C | CCOC(=O)C1=C(C)NC(C)=C(C(=O)OCC)C1c1ccccc1/C=C/C(=O)OC(C)(C)C
19 | 46 to 47 °C | CCCCCCCCCCCCCCCCCCOc1cc(OCCCOc2ccccc2)cc(C(=O)OCc2ccccc2)c1
20 | 141 to 143 °C | Cn1ncnc1-c1ccc(C(=O)C(=O)N2Cc3cccn3Cc3ccccc32)c(Cl)c1

Row | melting point | Structure (SMILES)
21 | 153 to 154 °C | CN1C(=O)c2ccc(CBr)cc2S1(=O)=O
22 | 134 to 136 °C | NC(=O)N(O)Cc1cscc1Br
23 | 139 to 140 °C | CC(C)(C)OC(=O)N1CCN(C(=O)c2ccncc2)CC1
24 | 241 to 243 °C | CNc1nc(-c2ccccc2)c(-c2nc3ccccc3c(=O)n2-c2ccccc2OC)s1
25 | 188 to 189 °C | CCCCN(CCCC)c1ccc2nc3c4ccccc4c(=Nc4ccncc4)cc-3oc2c1
26 | 162 to 163 °C | Cc1ccc(CNCCOc2cccc3[nH]c(=O)[nH]c23)cc1
27 | 37 to 38 °C | CCSc1nccc(C)c1N
28 | 262 °C | O=C(NC1CCC(CCN2CCN(c3nccc4c3CCO4)CC2)CC1)c1ccc(N2CCS(=O)(=O)CC2)cc1 (stereo not given)
29 | 94 to 97 °C | CC(C)(C)c1ccc(OCC(O)CN2CCC3(CC2)CSC2=C(O3)c3cc(Cl)ccc3C(=O)C2=O)cc1 (stereo not given)
30 | 84 to 86 °C | CCOc1c([N+](=O)[O-])cnn1-c1c(Cl)cc(C(F)(F)F)cc1Cl
31 | 147 to 148 °C | NCCCNc1n[nH]c(=O)c2ccccc12
32 | 108 to 110 °C | Clc1cc(Br)c2c(c1)COCO2
33 | 109 °C | CC(=O)N1CCC(C)(C)c2cccc(CCCN3CCN(c4nsc5ccccc45)CC3)c21
34 | 182 to 183 °C | O=C(NCc1ccc(F)c(F)c1)c1ccnc(N2CCN(Cc3ccc(F)cc3)C2=O)c1
35 | 80 to 82 °C | CCCCCCCCCCCCCc1c[nH]c(C(=O)OC)c1
36 | 125 to 127 °C | CCCC(=O)OCC(CO)CCn1cnc2cnc(N)nc21 (stereo not given)
37 | 168 to 169 °C | CCOc1ccc(F)cc1NC(=O)Nc1ccc(N2CCN(C(=O)OC(C)(C)C)CC2)cc1
38 | 119 to 120 °C | CCOC(=O)/C=C/c1cn(Cc2ccc3cc(OCc4ccccc4)ccc3c2)cc1-c1ccccc1
39 | 219 to 220 °C | Cc1ccc(C(=O)NN=C(N)CS(=O)(=O)c2ccccc2)o1
40 | > 270 °C | NC(=O)NCNC(N)=O
